Data on eleven compounds can be found in ChEMBL document CHEMBL4414660, “Effect of Modifier Structure on the Activation of Leukotriene A4 Hydrolase Aminopeptidase Activity” (J Med Chem, 2019).

Active and inactive are the calls of the source. The rule behind the calls is not given here.

One experiment concerns Neutrophil. The experiment in a line: Inhibition of LTB4 production in A23187-stimulated human neutrophils at 0.001 to 1000 microM incubated for 30 mins by ELISA. Format: functional, cell-based.
In experiment [1] the target is T1, Leukotriene A-4 hydrolase (Homo sapiens, UniProt P09960).
T1 sequence (P09960 whole entry): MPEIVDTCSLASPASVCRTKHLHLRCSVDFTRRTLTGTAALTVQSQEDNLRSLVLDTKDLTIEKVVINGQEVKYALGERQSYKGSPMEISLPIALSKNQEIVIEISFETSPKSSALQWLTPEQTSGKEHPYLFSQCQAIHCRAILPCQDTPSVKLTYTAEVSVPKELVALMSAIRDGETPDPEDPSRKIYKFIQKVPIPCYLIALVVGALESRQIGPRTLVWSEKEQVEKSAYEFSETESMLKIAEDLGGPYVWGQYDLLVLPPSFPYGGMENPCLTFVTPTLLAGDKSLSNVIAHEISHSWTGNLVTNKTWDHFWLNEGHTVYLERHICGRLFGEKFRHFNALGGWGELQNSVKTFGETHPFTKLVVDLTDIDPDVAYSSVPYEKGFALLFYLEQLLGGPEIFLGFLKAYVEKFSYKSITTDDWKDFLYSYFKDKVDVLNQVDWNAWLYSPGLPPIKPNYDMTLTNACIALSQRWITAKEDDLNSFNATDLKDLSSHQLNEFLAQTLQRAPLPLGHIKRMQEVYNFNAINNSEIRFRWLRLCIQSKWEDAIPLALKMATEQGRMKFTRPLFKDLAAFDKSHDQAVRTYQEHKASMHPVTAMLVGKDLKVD
The experiment is described as follows: Activation of N-terminal (His)6 and Xpress-tagged LTA4H (unknown origin) expressed in Escherichia coli BL21(DE3) cells assessed as increase in aminopeptidase activity by measuring p-nitroanilide release using L-Alanine-p-nitroanilide incubated for 10 mins by UV plate reader based assay.

Experiment [2] deals with T2, Leukotriene A-4 hydrolase (Homo sapiens) (UniProt P09960).
T2 sequence (whole entry): T1 sequence (P09960 whole entry)
The experiment is described as follows: Activation of N-terminal (His)6 and Xpress-tagged LTA4H (unknown origin) expressed in Escherichia coli BL21(DE3) cells assessed as increase in aminopeptidase activity by measuring dissociation constant (KX) for hyperbolic mixed predominantly catalytic activation using L-Alanine-p-nitroanilide incubated for 10 mins by p-nitroanilide release detection based UV plate reader based assay.

Experiment [3] has as its target T2, Leukotriene A-4 hydrolase (Homo sapiens). The experiment in a line: Activation of N-terminal (His)6 and Xpress-tagged LTA4H (unknown origin) expressed in Escherichia coli BL21(DE3) cells assessed as increase in aminopeptidase activity by measuring reciprocal allosteric coupling constant for hyperbolic mixed predominantly catalytic activation using L-Alanine-p-nitroanilide incubated for 10 mins by p-nitroanilide release detection based UV plate reader based assay.

Experiment [4] shares this target. The experiment is described as follows: Activation of N-terminal (His)6 and Xpress-tagged LTA4H (unknown origin) expressed in Escherichia coli BL21(DE3) cells assessed as increase in aminopeptidase activity by measuring factor by which activator affects catalytic constant for hyperbolic mixed predominantly catalytic activation using L-Alanine-p-nitroanilide incubated for 10 mins by p-nitroanilide release detection based UV plate reader based assay.

In experiment [5] the target is T1, Leukotriene A-4 hydrolase. The experiment is described as follows: Inhibition of N-terminal (His)6 and Xpress-tagged LTA4H (unknown origin) expressed in Escherichia coli BL21(DE3) cells assessed as reduction in aminopeptidase activity by measuring p-nitroanilide release using L-Alanine-p-nitroanilide incubated for 10 mins by UV plate reader based assay.

For the compound `CC(C)C[C@H](NC(=O)[C@@H](O)[C@H](N)Cc1ccccc1)C(=O)O`, the inhibition result in the experiment on Neutrophil is “Active”.

In general, AC50 refers to the midpoint of the concentration-response curve, whichever way the signal moves. With `Cc1ccccc1Cc1ccc(-c2csc(N)n2)cc1`, the AC50 in experiment [1] came out at 6.62 µM.

Regarding `COc1ccc(Cc2ccccc2)cc1`, the K in experiment [2] was found to be 0.18 µM; in experiment [3], 2.66. The AC50 in experiment [1] was 4.83 µM. Also, the fold change (FC) in experiment [4] came to 23.6.

By IC50 is commonly meant the concentration that inhibits the measured activity by half. Consider `COc1ccccc1Cc1ccc(-c2csc(N)n2)cc1`, for which the IC50 in experiment [5] is 0.1 µM.

Regarding `Nc1nc(-c2ccc(Cc3ccccc3C(F)(F)F)cc2)cs1`, the IC50 in experiment [5] worked out at 8.35 µM.

In the case of `COc1cccc(Cc2ccc(-c3csc(N)n3)cc2)c1`, the AC50 in experiment [1] is 5.92 µM.

Turning to `Nc1nc(-c2ccc(Cc3ccccc3)cc2)cs1`, the K stood at 1.35 µM in experiment [2] and 0.82 in experiment [3]. Also, the AC50 in experiment [1] was 0.24 µM. Also, in experiment [4], the fold change (FC) is 25.4.

As to `Cc1ccc(Cc2ccc(-c3csc(N)n3)cc2)cc1`, the K is 0.1 µM in experiment [2] and 1.64 in experiment [3]. Further, the AC50 in experiment [1] worked out at 0.083 µM. Besides, in experiment [4], the fold change (FC) was found to be 18.7.

Regarding `Nc1nc(-c2ccc(Cc3ccc(C(F)(F)F)cc3)cc2)cs1`, the K in experiment [2] came to 9.6 µM; in experiment [3], 9.51. In experiment [1], the AC50 turned out to be 1.39 µM. The fold change (FC) in experiment [4] stood at 21.4.

For the compound `Nc1nc(-c2ccc(Cc3cccc(C(F)(F)F)c3)cc2)cs1`, the AC50 in experiment [1] is 69 µM.

For `Cc1cccc(Cc2ccc(-c3csc(N)n3)cc2)c1`, the AC50 in experiment [1] came to 4.81 µM.
